Assay results reported in the NIST ThermoML archive (doi:10.1016/j.fluid.2009.11.007).

Experiment: xn = mol fraction of the nth substance listed
Conditions: Gas, Vibrating tube method

CCCCCCCCCCCCCCCC(=O)O [hexadecanoic acid] + O=C=O
Conditions	mass density [kg/m3]
313 K, 12110 kPa, x1 = 0.0003534	724.5
313 K, 12150 kPa, x1 = 0.0003534	725.8
313 K, 12360 kPa, x1 = 0.0003534	731.2
313 K, 12530 kPa, x1 = 0.0003534	735.3
313 K, 12770 kPa, x1 = 0.0003534	741
313 K, 12930 kPa, x1 = 0.0003534	744.7
313 K, 13150 kPa, x1 = 0.0003534	749.3
313 K, 13330 kPa, x1 = 0.0003534	753
313 K, 13680 kPa, x1 = 0.0003534	759.8
313 K, 13940 kPa, x1 = 0.0003534	764.4
313 K, 14120 kPa, x1 = 0.0003534	767.7
313 K, 14410 kPa, x1 = 0.0003534	772.7
313 K, 14570 kPa, x1 = 0.0004968	774.5
313 K, 14650 kPa, x1 = 0.0003534	776.6
313 K, 14940 kPa, x1 = 0.0005357	780.5
313 K, 14960 kPa, x1 = 0.0004968	780.9
313 K, 15030 kPa, x1 = 0.0003534	782.7
313 K, 15570 kPa, x1 = 0.0003534	790.5
313 K, 15970 kPa, x1 = 0.0004968	795.6
313 K, 16020 kPa, x1 = 0.0005357	795.7
313 K, 16050 kPa, x1 = 0.0003534	797
313 K, 16230 kPa, x1 = 0.0005357	798.5
313 K, 16430 kPa, x1 = 0.0005357	801.3
313 K, 16610 kPa, x1 = 0.0005357	803.4
313 K, 16820 kPa, x1 = 0.0005357	806
313 K, 17030 kPa, x1 = 0.0005357	808.5
313 K, 17040 kPa, x1 = 0.0003534	810.1
313 K, 17070 kPa, x1 = 0.0006302	809.1
313 K, 17120 kPa, x1 = 0.0004968	810
313 K, 17500 kPa, x1 = 0.0006302	814.3
313 K, 17610 kPa, x1 = 0.0006348	816.9
313 K, 17620 kPa, x1 = 0.0004968	815.9
313 K, 17810 kPa, x1 = 0.0006348	819
313 K, 17970 kPa, x1 = 0.0006302	819.5
313 K, 18010 kPa, x1 = 0.0006348	821
313 K, 18030 kPa, x1 = 0.0003534	821.3
313 K, 18050 kPa, x1 = 0.0004968	820.6
313 K, 18070 kPa, x1 = 0.0005357	820
313 K, 18180 kPa, x1 = 0.0006348	823.1
313 K, 18300 kPa, x1 = 0.0006348	824.3
313 K, 18400 kPa, x1 = 0.0006348	825.2
313 K, 18510 kPa, x1 = 0.0006348	826.4
313 K, 18600 kPa, x1 = 0.0006348	827.4
313 K, 18700 kPa, x1 = 0.0006348	828.4
313 K, 18790 kPa, x1 = 0.0006348	829.4
313 K, 18910 kPa, x1 = 0.0006348	830.6
313 K, 18990 kPa, x1 = 0.0006302	830.2
313 K, 19000 kPa, x1 = 0.0004968	830.5
313 K, 19040 kPa, x1 = 0.0003534	831.8
313 K, 19070 kPa, x1 = 0.0005357	830.9
313 K, 19070 kPa, x1 = 0.0006348	832.2
313 K, 19960 kPa, x1 = 0.0004968	839.8
313 K, 19990 kPa, x1 = 0.0006302	839.7
313 K, 20050 kPa, x1 = 0.0003534	841.4
313 K, 20060 kPa, x1 = 0.0005357	840.4
313 K, 20090 kPa, x1 = 0.0006348	841.8
313 K, 20150 kPa, x1 = 0.0007923	843.3
313 K, 20300 kPa, x1 = 0.0007923	844.6
313 K, 20540 kPa, x1 = 0.0007923	846.7
313 K, 20740 kPa, x1 = 0.0007923	848.5
313 K, 20940 kPa, x1 = 0.0007923	850.2
313 K, 21000 kPa, x1 = 0.0006302	848.7
313 K, 21010 kPa, x1 = 0.0006348	849.8
313 K, 21020 kPa, x1 = 0.0004968	849.3
313 K, 21040 kPa, x1 = 0.0003534	850.3
313 K, 21050 kPa, x1 = 0.0005357	849.1
313 K, 21120 kPa, x1 = 0.0007923	851.7
313 K, 21300 kPa, x1 = 0.0007923	853.3
313 K, 21520 kPa, x1 = 0.0007923	855
313 K, 21700 kPa, x1 = 0.0008682	855
313 K, 21710 kPa, x1 = 0.0007923	856.7
313 K, 21970 kPa, x1 = 0.0007923	858.7
313 K, 21980 kPa, x1 = 0.0003534	858
313 K, 22020 kPa, x1 = 0.0004968	857.5
313 K, 22020 kPa, x1 = 0.0006348	858.2
313 K, 22020 kPa, x1 = 0.0008682	857.3
313 K, 22030 kPa, x1 = 0.0005357	857.3
313 K, 22050 kPa, x1 = 0.0006302	857.5
313 K, 22230 kPa, x1 = 0.0007923	860.8
313 K, 22470 kPa, x1 = 0.0008682	861
313 K, 22650 kPa, x1 = 0.0007923	864
313 K, 22790 kPa, x1 = 0.0004968	863.5
313 K, 22910 kPa, x1 = 0.0007923	865.9
313 K, 22930 kPa, x1 = 0.0008981	864.8
313 K, 22990 kPa, x1 = 0.0003534	866
313 K, 23000 kPa, x1 = 0.0006302	864.9
313 K, 23030 kPa, x1 = 0.0005357	865.1
313 K, 23050 kPa, x1 = 0.0006348	866
313 K, 23070 kPa, x1 = 0.0008682	865.7
313 K, 23280 kPa, x1 = 0.0008981	867.3
313 K, 23520 kPa, x1 = 0.0007923	868.9
313 K, 23550 kPa, x1 = 0.0008682	869.1
313 K, 23570 kPa, x1 = 0.0008981	869.5
313 K, 23790 kPa, x1 = 0.0006348	871.5
313 K, 23810 kPa, x1 = 0.0008981	871.1
313 K, 23990 kPa, x1 = 0.0005357	872.2
313 K, 24000 kPa, x1 = 0.0006302	872.3
313 K, 24010 kPa, x1 = 0.0004968	872.7
313 K, 24010 kPa, x1 = 0.0008981	872.6
313 K, 24020 kPa, x1 = 0.0007923	871.6
313 K, 24040 kPa, x1 = 0.0008682	872.7
313 K, 24050 kPa, x1 = 0.0003534	873.7
313 K, 24460 kPa, x1 = 0.0008682	875.8
313 K, 24640 kPa, x1 = 0.0005357	876.7
313 K, 24740 kPa, x1 = 0.0006302	877.4
313 K, 24780 kPa, x1 = 0.0008981	877.9
313 K, 25030 kPa, x1 = 0.0004968	879.6
318 K, 10140 kPa, x1 = 0.0001436	535.9
318 K, 10290 kPa, x1 = 0.0001436	551.9
318 K, 10550 kPa, x1 = 0.0001436	577.8
318 K, 10890 kPa, x1 = 0.0001436	604.2
318 K, 11230 kPa, x1 = 0.0001436	626.2
318 K, 11520 kPa, x1 = 0.0001436	641.2
318 K, 11870 kPa, x1 = 0.0001436	657.3
318 K, 12190 kPa, x1 = 0.0001436	670.6
318 K, 12480 kPa, x1 = 0.0001436	680.9
318 K, 12820 kPa, x1 = 0.0001436	692
318 K, 13110 kPa, x1 = 0.0001436	700.3
318 K, 13390 kPa, x1 = 0.0001436	708.3
318 K, 13730 kPa, x1 = 0.0001436	716.8
318 K, 14030 kPa, x1 = 0.0001436	723.9
318 K, 14520 kPa, x1 = 0.0001436	734.8
318 K, 14990 kPa, x1 = 0.0001436	744
318 K, 16050 kPa, x1 = 0.0001436	762.8
318 K, 17010 kPa, x1 = 0.0001436	777.4
318 K, 17690 kPa, x1 = 0.0001436	786.8
318 K, 18080 kPa, x1 = 0.0001436	791.8
318 K, 18990 kPa, x1 = 0.0001436	802.8
318 K, 19750 kPa, x1 = 0.0001436	811.4
318 K, 21720 kPa, x1 = 0.001828	831.3
318 K, 21990 kPa, x1 = 0.001828	833.9
318 K, 22510 kPa, x1 = 0.001828	838.4
318 K, 23010 kPa, x1 = 0.001828	842.7
318 K, 23350 kPa, x1 = 0.001112	845.5
318 K, 23520 kPa, x1 = 0.001828	846.9
318 K, 23920 kPa, x1 = 0.001112	849.8
318 K, 24050 kPa, x1 = 0.001112	850.8
318 K, 24050 kPa, x1 = 0.001828	850.9
318 K, 24090 kPa, x1 = 0.001112	851.1
318 K, 24270 kPa, x1 = 0.001112	852.5
318 K, 24430 kPa, x1 = 0.001112	853.7
318 K, 24510 kPa, x1 = 0.001112	854.2
318 K, 24560 kPa, x1 = 0.001828	854.7
318 K, 24610 kPa, x1 = 0.001112	855
318 K, 24770 kPa, x1 = 0.001112	856.3
318 K, 24930 kPa, x1 = 0.001112	857.5
318 K, 25040 kPa, x1 = 0.001112	858.3
